From patent US11040981B2, “Pyrrolotriazine compounds and methods of inhibiting TAM kinases” (Syros Pharmaceuticals, Inc., priority 2017, dated 2021)
Each block holds one molecule with its values, some of them ahead of it.

How the values were obtained:
[1] = target: T1, MERTK (Homo sapiens, UniProt Q12866); assay: TR-FRET kinase activity assay, MERTK; type: biochemical; conditions: for IC50: TR-FRET activity assay, ATP at Km, 60 minutes, read-out: Mer IC50
T1 sequence (Q12866 21-999): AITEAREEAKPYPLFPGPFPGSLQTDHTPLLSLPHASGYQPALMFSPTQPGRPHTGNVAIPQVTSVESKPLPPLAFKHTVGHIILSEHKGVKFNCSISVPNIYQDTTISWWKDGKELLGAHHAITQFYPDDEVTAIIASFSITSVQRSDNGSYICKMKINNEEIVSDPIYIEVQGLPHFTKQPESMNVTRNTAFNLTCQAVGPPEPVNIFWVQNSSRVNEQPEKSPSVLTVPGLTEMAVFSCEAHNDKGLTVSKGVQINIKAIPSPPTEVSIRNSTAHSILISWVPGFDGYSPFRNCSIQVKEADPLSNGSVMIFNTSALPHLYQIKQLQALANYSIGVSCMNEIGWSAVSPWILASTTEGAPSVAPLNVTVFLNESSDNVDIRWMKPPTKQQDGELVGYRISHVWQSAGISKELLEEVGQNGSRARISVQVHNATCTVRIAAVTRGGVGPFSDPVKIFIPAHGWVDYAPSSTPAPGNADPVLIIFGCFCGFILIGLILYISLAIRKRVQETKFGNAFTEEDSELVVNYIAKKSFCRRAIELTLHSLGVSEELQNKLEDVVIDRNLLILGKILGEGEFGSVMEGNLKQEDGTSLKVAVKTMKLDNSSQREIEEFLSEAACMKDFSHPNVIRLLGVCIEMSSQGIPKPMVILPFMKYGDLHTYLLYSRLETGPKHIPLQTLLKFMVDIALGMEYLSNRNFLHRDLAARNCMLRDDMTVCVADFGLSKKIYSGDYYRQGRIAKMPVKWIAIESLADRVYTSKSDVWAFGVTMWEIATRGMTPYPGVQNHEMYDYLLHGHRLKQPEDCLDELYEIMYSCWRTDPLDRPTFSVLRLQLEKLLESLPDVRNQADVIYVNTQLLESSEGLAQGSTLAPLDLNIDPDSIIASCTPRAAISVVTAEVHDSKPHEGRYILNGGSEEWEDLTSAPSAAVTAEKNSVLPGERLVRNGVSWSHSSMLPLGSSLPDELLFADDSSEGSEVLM
Outline: (§1)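 Recombinant human kinases, fluorescent peptide substrate, ATP at Km; 1 h RT, pH 7.5. EDTA-quenched, Eu antibody added, TR-FRET read; IC50 determined.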

[2] = target: T2, AXL (Homo sapiens, UniProt P30530); assay: TR-FRET kinase activity assay, AXL; type: biochemical; conditions: ATP at Km, 60 minutes
T2 sequence (P30530 26-894): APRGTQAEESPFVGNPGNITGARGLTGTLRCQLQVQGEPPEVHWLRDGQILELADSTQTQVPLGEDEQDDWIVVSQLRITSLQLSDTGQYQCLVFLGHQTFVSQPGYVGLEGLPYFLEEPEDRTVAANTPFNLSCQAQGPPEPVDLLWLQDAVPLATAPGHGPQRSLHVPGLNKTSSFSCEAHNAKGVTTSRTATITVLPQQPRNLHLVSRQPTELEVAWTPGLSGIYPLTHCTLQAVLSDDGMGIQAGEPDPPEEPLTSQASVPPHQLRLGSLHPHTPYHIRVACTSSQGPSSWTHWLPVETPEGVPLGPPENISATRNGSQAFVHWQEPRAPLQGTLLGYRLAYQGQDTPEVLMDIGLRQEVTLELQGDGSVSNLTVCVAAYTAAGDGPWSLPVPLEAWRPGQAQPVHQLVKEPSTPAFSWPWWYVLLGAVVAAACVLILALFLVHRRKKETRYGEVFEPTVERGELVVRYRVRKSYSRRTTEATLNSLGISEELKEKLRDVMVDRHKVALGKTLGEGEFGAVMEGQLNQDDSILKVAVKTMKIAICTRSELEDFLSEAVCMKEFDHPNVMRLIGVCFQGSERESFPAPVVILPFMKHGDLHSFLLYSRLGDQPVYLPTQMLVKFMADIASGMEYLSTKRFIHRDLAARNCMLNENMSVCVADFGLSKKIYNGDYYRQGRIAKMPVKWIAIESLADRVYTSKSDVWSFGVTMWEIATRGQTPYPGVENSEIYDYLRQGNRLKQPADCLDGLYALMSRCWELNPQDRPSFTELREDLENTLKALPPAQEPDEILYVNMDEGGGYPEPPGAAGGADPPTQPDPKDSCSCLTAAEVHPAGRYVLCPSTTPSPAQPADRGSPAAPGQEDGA
Outline: as §1

[3] = ratio calculated as FLT3 IC50/Mer IC50
[4] = ratio of Mer to FLT3: FLT3 IC50/Mer IC50

IC50 [1]: ≤ 0.1 µM
FLT3/Mer ratio (FLT3 IC50/Mer IC50) [1, 4]: +++ (“+++” represents a ratio of >100)
IC50 [2]: ≤ 0.1 µM
Compound: COC[C@H](C)Nc1ncc2c(-c3ccc(C(=O)O)cc3)cc([C@H]3CC[C@H](O)CC3)n2n1 [Compound 139]

IC50 [1]: ≤ 0.1 µM
FLT3/Mer ratio (FLT3 IC50/Mer IC50) [1, 3]: +++ (“+++” represents a ratio of >100)
IC50 [2]: ≤ 0.1 µM
Compound: COCC(C)Nc1ncc2c(-c3ccnc(N4CCOC(C(C)(C)O)C4)c3)cc(C3CCC(O)CC3)n2n1 (stereo not drawn) [Compound 559]

IC50 [1]: ≤ 0.1 µM
FLT3/Mer ratio (FLT3 IC50/Mer IC50) [1, 3]: +++ (“+++” represents a ratio of >100)
IC50 [2]: ≤ 0.1 µM
Compound: COC[C@H](C)Nc1ncc2c(-c3ccc(CN4CCN(C)CC4)nc3)cc([C@H]3CC[C@H](O)CC3)n2n1 [Compound 565]

IC50 [1]: ≤ 0.1 µM
FLT3/Mer ratio (FLT3 IC50/Mer IC50) [1, 3]: +++ (“+++” represents a ratio of >100)
IC50 [2]: 0.1 to 1 µM
Compound: COCC(C)Nc1ncc2c(-c3ccc4[nH]ccc4c3)cc(C3CCC(O)CC3)n2n1 (stereo not drawn) [Compound 539]

IC50 [1]: ≤ 0.1 µM
FLT3/Mer ratio (FLT3 IC50/Mer IC50) [1, 3]: +++ (“+++” represents a ratio of >100)
IC50 [2]: ≤ 0.1 µM
Compound: COC[C@H](C)Nc1ncc2c(-c3ccnc(C(F)(F)F)c3)cc([C@H]3CC[C@H](O)CC3)n2n1 [Compound 584]

IC50 [1]: ≤ 0.1 µM
FLT3/Mer ratio (FLT3 IC50/Mer IC50) [1, 4]: +++ (“+++” represents a ratio of >100)
IC50 [2]: ≤ 0.1 µM
Compound: COCC(C)Nc1ncc2c(-c3ccc(CN4CCCC4)cc3)cc(C3CCC(O)CC3)n2n1 (stereo not drawn) [Compound 142]

IC50 [1]: ≤ 0.1 µM
FLT3/Mer ratio (FLT3 IC50/Mer IC50) [1, 3]: +++ (“+++” represents a ratio of >100)
IC50 [2]: 0.1 to 1 µM
Compound: COC[C@H](C)Nc1ncc2c(-c3cncc([S@@](C)(=N)=O)c3)cc([C@H]3CC[C@H](O)CC3)n2n1 [Compound 573]

IC50 [1]: ≤ 0.1 µM
FLT3/Mer ratio (FLT3 IC50/Mer IC50) [1, 3]: +++ (“+++” represents a ratio of >100)
IC50 [2]: ≤ 0.1 µM
Compound: COC[C@H](C)Nc1ncc2c(-c3ccc([S@@](C)(=N)=O)nc3)cc([C@H]3CC[C@H](O)CC3)n2n1 [Compound 533]

IC50 [1]: ≤ 0.1 µM
FLT3/Mer ratio (FLT3 IC50/Mer IC50) [1, 3]: +++ (“+++” represents a ratio of >100)
IC50 [2]: ≤ 0.1 µM
Compound: COCC(C)Nc1ncc2c(-c3ccc4ncoc4c3)cc(C3CCC(O)CC3)n2n1 (stereo not drawn) [Compound 552]

IC50 [1]: ≤ 0.1 µM
IC50 [2]: ≤ 0.1 µM
Compound: C[C@@H](CC(F)(F)F)Nc1ncc2c(-c3ccc([S@@](C)(=N)=O)nc3)cc([C@H]3CC[C@H](O)CC3)n2n1 [Compound 541]
FLT3/Mer ratio (FLT3 IC50/Mer IC50) [1, 3]: ++ (“++” represents a ratio of between 10 and 100)

IC50 [1]: ≤ 0.1 µM
FLT3/Mer ratio (FLT3 IC50/Mer IC50) [1, 3]: +++ (“+++” represents a ratio of >100)
IC50 [2]: ≤ 0.1 µM
Compound: COC[C@H](C)Nc1ncc2c(-c3ccnc(N4CCOCC4)c3)cc([C@H]3CC[C@@H](O)CC3)n2n1 [Compound 546]

IC50 [1]: ≤ 0.1 µM
FLT3/Mer ratio (FLT3 IC50/Mer IC50) [1, 3]: +++ (“+++” represents a ratio of >100)
IC50 [2]: ≤ 0.1 µM
Compound: COC[C@H](C)Nc1ncc2c(-c3ccnc(C4COC4)c3)cc([C@H]3CC[C@H](O)CC3)n2n1 [Compound 566]

Second part, the molecule before the results:

Compound: C[C@H](Nc1ncc2c(-c3cnn(C(C)(C)C(=O)N4CCOCC4)c3)cc([C@H]3CC[C@H](O)CC3)n2n1)C(F)(F)F [Compound 537]
IC50 [1]: ≤ 0.1 µM
FLT3/Mer ratio (FLT3 IC50/Mer IC50) [1, 3]: +++ (“+++” represents a ratio of >100)
IC50 [2]: ≤ 0.1 µM

Compound: COC[C@H](C)Nc1ncc2c(-c3cnn(C(C)(C)C(=O)N4CC[C@H](O)C4)c3)cc([C@H]3CC[C@H](O)CC3)n2n1 [Compound 554]
IC50 [1]: ≤ 0.1 µM
FLT3/Mer ratio (FLT3 IC50/Mer IC50) [1, 3]: +++ (“+++” represents a ratio of >100)
IC50 [2]: ≤ 0.1 µM

Compound: COC[C@H](C)Nc1ncc2c(-c3cnn(C(C)(C)C(=O)N4CCOC(C(C)(C)O)C4)c3)cc([C@H]3CC[C@H](O)CC3)n2n1 (stereo partly drawn) [Compound 586]
IC50 [1]: ≤ 0.1 µM
FLT3/Mer ratio (FLT3 IC50/Mer IC50) [1, 3]: +++ (“+++” represents a ratio of >100)
IC50 [2]: ≤ 0.1 µM

Compound: COC[C@H](C)Nc1ncc2c(-c3cnn(C4COC4)c3)cc(-c3cccc(O)c3)n2n1 [Compound 511]
IC50 [1]: ≤ 0.1 µM
FLT3/Mer ratio (FLT3 IC50/Mer IC50) [1, 3]: ++ (“++” represents a ratio of between 10 and 100)
IC50 [2]: 1 to 10 µM

Compound: COC[C@H](C)Nc1ncc2c(-c3cnn(C(C)(C)C(=O)N4CCOCC4)c3)cc([C@H]3CC[C@@](C)(O)CC3)n2n1 [Compound 561]
IC50 [1]: ≤ 0.1 µM
FLT3/Mer ratio (FLT3 IC50/Mer IC50) [1, 3]: +++ (“+++” represents a ratio of >100)
IC50 [2]: ≤ 0.1 µM

Compound: COC[C@H](C)Nc1ncc2c(-c3cnn(C(C)(C)C(=O)N4CC[C@@H](O)C4)c3)cc([C@H]3CC[C@H](O)CC3)n2n1 [Compound 555]
IC50 [1]: ≤ 0.1 µM
FLT3/Mer ratio (FLT3 IC50/Mer IC50) [1, 3]: +++ (“+++” represents a ratio of >100)
IC50 [2]: ≤ 0.1 µM

Compound: COC[C@H](C)Nc1ncc2c(-c3cnn(C(C)(C)C(=O)N4CCOC(C(C)(C)O)C4)c3)cc([C@H]3CC[C@H](O)CC3)n2n1 (stereo partly drawn) [Compound 556]
IC50 [1]: ≤ 0.1 µM
FLT3/Mer ratio (FLT3 IC50/Mer IC50) [1, 3]: +++ (“+++” represents a ratio of >100)
IC50 [2]: ≤ 0.1 µM

Compound: CC(Nc1ncc2c(-c3cnn(C4COC4)c3)cc(C3CCC(O)CC3)n2n1)c1ccccn1 (stereo not drawn) [Compound 544]
IC50 [1]: 0.1 to 1 µM
FLT3/Mer ratio (FLT3 IC50/Mer IC50) [1, 3]: ++ (“++” represents a ratio of between 10 and 100)
IC50 [2]: 1 to 10 µM

Compound: COC[C@H](C)Nc1ncc2c(-c3cnn(C4COC4)c3)cc(C3CCSCC3)n2n1 [Compound 522]
IC50 [1]: ≤ 0.1 µM
FLT3/Mer ratio (FLT3 IC50/Mer IC50) [1, 3]: +++ (“+++” represents a ratio of >100)
IC50 [2]: 0.1 to 1 µM

Compound: CC(Cc1ccc(F)cc1)Nc1ncc2c(-c3cnn(C4COC4)c3)cc(C3CCC(O)CC3)n2n1 (racemic) [Compound 535]
IC50 [1]: ≤ 0.1 µM
FLT3/Mer ratio (FLT3 IC50/Mer IC50) [1, 3]: ++ (“++” represents a ratio of between 10 and 100)
IC50 [2]: ≤ 0.1 µM

Compound: COC[C@H](C)Nc1ncc2c(-c3cnn(C4COC4)c3)cc([C@@H]3CC[C@H](O)[C@H](C)C3)n2n1 [Compound 587]
IC50 [1]: ≤ 0.1 µM
FLT3/Mer ratio (FLT3 IC50/Mer IC50) [1, 3]: +++ (“+++” represents a ratio of >100)
IC50 [2]: ≤ 0.1 µM

Compound: COC[C@H](C)Nc1ncc2c(-c3cnn(C(C)(C)C(=O)N4CCOCC4)c3)cc([C@@H]3CCc4cn[nH]c4C3)n2n1 [Compound 594]
IC50 [1]: ≤ 0.1 µM
FLT3/Mer ratio (FLT3 IC50/Mer IC50) [1, 3]: +++ (“+++” represents a ratio of >100)
IC50 [2]: ≤ 0.1 µM
